Here are results for 13 compounds from US20240116985A1, “STAPLED PEPTIDES AND METHODS THEREOF” (priority 2020, published 2024).

Test [1] addresses T1, beta-catenin/TCF4 engagement (Homo sapiens, UniProt P35222).
T1 construct: expressed in transfected cells; host or cells: HEK293
T1 sequence (P35222 1-781): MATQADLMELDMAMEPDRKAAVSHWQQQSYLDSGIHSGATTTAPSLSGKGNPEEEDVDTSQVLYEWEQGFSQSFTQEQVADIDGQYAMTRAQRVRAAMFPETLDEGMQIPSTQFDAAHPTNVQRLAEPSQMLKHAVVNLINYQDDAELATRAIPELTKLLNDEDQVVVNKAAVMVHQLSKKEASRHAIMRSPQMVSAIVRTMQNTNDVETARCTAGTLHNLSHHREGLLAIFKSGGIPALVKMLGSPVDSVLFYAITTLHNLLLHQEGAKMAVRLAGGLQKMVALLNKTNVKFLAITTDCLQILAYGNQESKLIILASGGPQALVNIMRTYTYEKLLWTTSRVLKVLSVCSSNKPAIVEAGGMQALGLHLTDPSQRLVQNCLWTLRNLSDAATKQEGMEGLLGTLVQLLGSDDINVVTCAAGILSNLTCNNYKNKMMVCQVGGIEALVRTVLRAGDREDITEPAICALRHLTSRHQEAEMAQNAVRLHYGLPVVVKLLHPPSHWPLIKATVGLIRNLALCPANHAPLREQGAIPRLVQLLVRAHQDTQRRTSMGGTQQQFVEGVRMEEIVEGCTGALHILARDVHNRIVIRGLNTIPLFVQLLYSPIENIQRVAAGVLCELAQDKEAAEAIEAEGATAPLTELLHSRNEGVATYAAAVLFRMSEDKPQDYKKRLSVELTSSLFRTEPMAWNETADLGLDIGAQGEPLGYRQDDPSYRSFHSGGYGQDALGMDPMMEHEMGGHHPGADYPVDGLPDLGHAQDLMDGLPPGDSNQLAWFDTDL
As to the kind of experiment: Nano-BRET target engagement assay (B-cat-Halo & TCF4-Luc in HEK293 cells). Particulars: read-out: NanoBRET Abs IC50. It counts as cell-based.

Test [2] addresses T2, full-length beta-Catenin (Uniprot ID P35222) (Homo sapiens, UniProt P35222).
T2 construct: 10 nM full-length beta-Catenin (Uniprot ID P35222)
T2 sequence (P35222 1-781): T1 sequence (P35222 1-781)
Nature of the test: Fluorescence polarization IC50 (beta-catenin / 5FAM-TCF4 10-53 competition). It counts as binding. As to conditions: fluorescence polarization; read-out: beta-Catenin FP IC50. Background: In fluorescence polarisation assays a small probe gives low polarisation when free and higher when bound to something large.

By IC50 is commonly meant the point on the concentration scale where inhibition reaches its midpoint.

`CC(=O)N1CCC[C@]12CC=CCCCC1(CCCC=CCCCOC(=O)N3CC[C@@](C(=O)N[C@@H](Cc4ccsc4)C(=O)N[C@@H](Cc4csc5ccccc45)C(=O)N[C@@H](CCC(N)=O)C(N)=O)(C3)NC(=O)[C@H](CC(N)=O)NC(=O)[C@H](Cc3cccc(C(=O)O)c3)NC(=O)[C@H](C)NC(=O)[C@H](C)NC(=O)[C@H](Cc3c[nH]cn3)NC(=O)[C@H](CC(=O)O)NC1=O)NC(=O)[C@H](CC(C)(C)C)NC(=O)[C@H](CC(=O)O)NC2=O` (stereo partly drawn) [I-2119, Ac-PL3-Asp-Npg-B5-Asp-His-Ala-Ala-3COOHF-Asn-PyrS2-3Thi-BztA-Gln-NH2]: the IC50 in test [1] was more than 20000 nM; in test [2], 29 nM.
On to `CC(=O)N1CCC[C@]12CC=CCCCC1(CCCC=CCCCOC(=O)N3CC[C@@](C(=O)N[C@@H](Cc4ccsc4)C(=O)N[C@@H](Cc4csc5ccccc45)C(=O)N[C@@H](CCC(N)=O)C(N)=O)(C3)NC(=O)[C@H](CCO)NC(=O)[C@H](Cc3cccc(C(=O)O)c3)NC(=O)[C@H](C)NC(=O)[C@H](C)NC(=O)[C@H](Cc3c[nH]cn3)NC(=O)[C@H](CC(=O)O)NC1=O)NC(=O)[C@H](CC(C)(C)C)NC(=O)[C@H](CC(=O)O)NC2=O` (stereo partly drawn) [I-2120, Ac-PL3-Asp-Npg-B5-Asp-His-Ala-Ala-3COOHF-Hse-PyrS2-3Thi-BztA-Gln-NH2], for which the IC50 in test [1] turned out to be 37200 nM; in test [2] it was 11 nM.
On to `CC(=O)N1CCC[C@]12CC=CCCCC1(CCCC=CCCCOC(=O)N3CC[C@@](C(=O)N[C@@H](Cc4ccsc4)C(=O)N[C@@H](Cc4csc5ccccc45)C(=O)N[C@@H](CCC(N)=O)C(N)=O)(C3)NC(=O)[C@H](CCO)NC(=O)[C@H](Cc3cccc(C(=O)O)c3)NC(=O)[C@H](C)NC(=O)[C@H](C)NC(=O)[C@H](Cc3c[nH]cn3)NC(=O)[C@H](CC(=O)O)NC1=O)NC(=O)[C@H](CC(C)(C)C)NC(=O)[C@H](CC(=O)O)NC2=O` (stereo partly drawn) [I-2121, Ac-PL3-Asp-Npg-B5-Asp-His-Ala-Ala-3COOHF-Hse-PyrS2-3Thi-BztA-Gln-NH2], for which the IC50 in test [1] is more than 20000 nM; in test [2], 12 nM.
For `CC(=O)N1CCC[C@]12CC=CCCCC1(CCCC=CCCCOC(=O)N3CC[C@@](C(=O)N[C@@H](Cc4ccsc4)C(=O)N[C@@H](Cc4csc5ccccc45)C(=O)N[C@@H](CCC(N)=O)C(N)=O)(C3)NC(=O)[C@H](CC(C)C)NC(=O)[C@H](Cc3cccc(C(=O)O)c3)NC(=O)[C@H](C)NC(=O)[C@H](C)NC(=O)[C@H](Cc3c[nH]cn3)NC(=O)[C@H](CC(=O)O)NC1=O)NC(=O)[C@H](CC(C)(C)C)NC(=O)[C@H](CC(=O)O)NC2=O` (stereo partly drawn) [I-2122, Ac-PL3-Asp-Npg-B5-Asp-His-Ala-Ala-3COOHF-Leu-PyrS2-3Thi-BztA-Gln-NH2], the IC50 in test [1] was 34400 nM; in test [2], 12 nM.
In the case of `CC(=O)N1CCC[C@]12CC=CCCCC1(CCCC=CCCCOC(=O)N3CC[C@@](C(=O)N[C@@H](Cc4ccsc4)C(=O)N[C@@H](Cc4csc5ccccc45)C(=O)N[C@@H](CCC(N)=O)C(N)=O)(C3)NC(=O)[C@H](CC(C)C)NC(=O)[C@H](Cc3cccc(C(=O)O)c3)NC(=O)[C@H](C)NC(=O)[C@H](C)NC(=O)[C@H](Cc3c[nH]cn3)NC(=O)[C@H](CC(=O)O)NC1=O)NC(=O)[C@H](CC(C)(C)C)NC(=O)[C@H](CC(=O)O)NC2=O` (stereo partly drawn) [I-2123, Ac-PL3-Asp-Npg-B5-Asp-His-Ala-Ala-3COOHF-Leu-PyrS2-3Thi-BztA-Gln-NH2], the IC50 in test [1] is 26900 nM; in test [2], 12 nM.
For the compound `CC(=O)N1CCC[C@]12CC=CCCCC1(CCCC=CCCCOC(=O)N3CC[C@@](C(=O)N[C@@H](Cc4ccsc4)C(=O)N[C@@H](Cc4csc5ccccc45)C(=O)N[C@@H](CCC(N)=O)C(N)=O)(C3)NC(=O)[C@H](CC(C)C)NC(=O)[C@H](Cc3cccc(C(=O)O)c3)NC(=O)[C@H](C)NC(=O)[C@H](C)NC(=O)[C@H](Cc3ccc(O)cc3)NC(=O)[C@H](CC(=O)O)NC1=O)NC(=O)[C@H](CC(C)(C)C)NC(=O)[C@H](CC(=O)O)NC2=O` (stereo partly drawn) [I-2126, Ac-PL3-Asp-Npg-B5-Asp-Tyr-Ala-Ala-3COOHF-Leu-PyrS2-3Thi-BztA-Gln-NH2], the values for the IC50 in test [1] and in test [2] were 29500 nM and 68 nM, respectively.
For the compound `CC(=O)N1CCC[C@]12CC=CCCCC1(CCCC=CCCCOC(=O)N3CC[C@@](C(=O)N[C@@H](Cc4ccsc4)C(=O)N[C@@H](Cc4csc5ccccc45)C(=O)N[C@@H](CCC(N)=O)C(N)=O)(C3)NC(=O)[C@H](CCO)NC(=O)[C@H](Cc3cccc(C(=O)O)c3)NC(=O)[C@H](C)NC(=O)[C@H](C)NC(=O)[C@H](Cc3c[nH]c4ccccc34)NC(=O)[C@H](CC(=O)O)NC1=O)NC(=O)[C@H](CC(C)(C)C)NC(=O)[C@H](CC(=O)O)NC2=O` (stereo partly drawn) [I-2128, Ac-PL3-Asp-Npg-B5-Asp-Trp-Ala-Ala-3COOHF-Hse-PyrS2-3Thi-BztA-Gln-NH2], the concentration for half-maximal inhibition (IC50) in test [1] amounted to 27000 nM; in test [2], 29 nM.
In the case of `CC(=O)N1CCC[C@]12CC=CCCCC1(CCCC=CCCCOC(=O)N3CC[C@@](C(=O)N[C@@H](Cc4ccsc4)C(=O)N[C@@H](Cc4csc5ccccc45)C(=O)N[C@@H](C)C(N)=O)(C3)NC(=O)[C@H](CC(N)=O)NC(=O)[C@H](Cc3ccccc3)NC(=O)[C@H](C)NC(=O)[C@H](C)NC(=O)[C@H]([C@@H](C)O)NC(=O)[C@H](CC(N)=O)NC1=O)NC(=O)[C@H](CC(C)(C)C)NC(=O)[C@H](CC(=O)O)NC2=O` (stereo partly drawn) [I-2142, Ac-PL3-Asp-Npg-B5-Asn-Thr-Ala-Ala-Phe-Asn-PyrS2-3Thi-BztA-Ala-NH2], the values for the IC50 in test [1] and in test [2] were more than 20000 nM and 271 nM, respectively.
On to `CC(=O)N1CCC[C@]12CC=CCC1(CC=CCCCOC(=O)N3CC[C@@](C(=O)N[C@@H](Cc4ccsc4)C(=O)N[C@@H](Cc4csc5ccccc45)C(=O)N[C@@H](CCC(N)=O)C(N)=O)(C3)NC(=O)[C@H](CC(C)C)NC(=O)[C@H](Cc3ccccc3)NC(=O)[C@H](C)NC(=O)[C@H](C)NC(=O)[C@H](CC(=O)O)NC(=O)[C@H](CC(=O)O)NC1=O)NC(=O)[C@H](CC(C)(C)C)NC(=O)[C@H](CC(=O)O)NC2=O` (stereo partly drawn) [I-2156, Ac-PL3-Asp-Npg-B3-Asp-Asp-Ala-Ala-Phe-Leu-PyrS2-3Thi-BztA-Gln-NH2], for which the half-maximal inhibitory concentration (IC50) in test [1] is more than 20000 nM; in test [2], 387 nM.
Turning to `CC(=O)N1CCC[C@]12CCCCC1(CCCCCCCOC(=O)N3CC[C@@](C(=O)N[C@@H](Cc4ccsc4)C(=O)N[C@@H](Cc4csc5ccccc45)C(=O)N[C@@H](CCC(N)=O)C(N)=O)(C3)NC(=O)[C@H](CC(C)C)NC(=O)[C@H](Cc3ccccc3)NC(=O)[C@H](C)NC(=O)[C@H](C)NC(=O)[C@H](CC(=O)O)NC(=O)[C@H](CC(=O)O)NC1=O)NC(=O)[C@H](CC(C)(C)C)NC(=O)[C@H](CC(=O)O)NC2=O` (stereo partly drawn) [I-2161, Ac-PL3-Asp-Npg-B3-Asp-Asp-Ala-Ala-Phe-Leu-PyrS3-3Thi-BztA-Gln-NH2], the IC50 in test [1] is more than 20000 nM; in test [2], 855 nM.
As to `CC(=O)N1CCC[C@]12CCCCC1(CCCCCCCCOC(=O)N3CC[C@](C(=O)N[C@@H](Cc4ccsc4)C(=O)N[C@@H](Cc4csc5ccccc45)C(=O)N[C@@H](CCC(N)=O)C(N)=O)(C3)NC(=O)[C@H](CC(C)C)NC(=O)[C@H](Cc3ccccc3)NC(=O)[C@H](C)NC(=O)[C@H](C)NC(=O)[C@H](CC(=O)O)NC(=O)[C@H](CC(=O)O)NC1=O)NC(=O)[C@H](CC(C)(C)C)NC(=O)[C@H](CC(=O)O)NC2=O` (stereo partly drawn) [I-2162, Ac-PL3-Asp-Npg-B3-Asp-Asp-Ala-Ala-Phe-Leu-PyrS4-3Thi-BztA-Gln-NH2], the values for the IC50 in test [1] and in test [2] were more than 20000 nM and 1160 nM, respectively.
For the compound `CC(=O)N1CCC[C@]12CC=CCCCC1(CCCC=CCCCOC(=O)N3CC[C@@](C(=O)N[C@@H](Cc4ccccc4)C(=O)N[C@@H](Cc4csc5ccccc45)C(=O)N[C@@H](CCO)C(N)=O)(C3)NC(=O)[C@H](CC(N)=O)NC(=O)[C@H](Cc3ccccc3)NC(=O)[C@H](C)NC(=O)[C@H](CCCCNC(C)C)NC(=O)[C@H](CCC(N)=O)NC(=O)[C@H](CC(=O)O)NC1=O)NC(=O)[C@H](CC1CCCCC1)NC(=O)[C@H](CC(N)=O)NC2=O` (stereo partly drawn) [I-2167, Ac-PL3-Asn-Cha-B5-Asp-Gln-iPrLys-Ala-Phe-Asn-PyrS2-Phe-BztA-Hse-NH2], the 50% inhibitory concentration (IC50) in test [1] is more than 20000 nM; in test [2] it was 199 nM.
On to `CC(=O)N1CCC[C@]12CC=CCCCC1(CCCC=CCCCOC(=O)N3CC[C@@](C(=O)N[C@@H](Cc4ccccc4C(N)=O)C(=O)N[C@@H](Cc4csc5ccccc45)C(=O)N[C@@H](CCO)C(N)=O)(C3)NC(=O)[C@H](CC(N)=O)NC(=O)[C@H](Cc3ccccc3)NC(=O)[C@H](C)NC(=O)[C@H](CCCCNC(C)C)NC(=O)[C@H](CCC(N)=O)NC(=O)[C@H](CC(=O)O)NC1=O)NC(=O)[C@H](CC1CCCCC1)NC(=O)[C@H](CC(N)=O)NC2=O` (stereo partly drawn) [I-2168, Ac-PL3-Asn-Cha-B5-Asp-Gln-iPrLys-Ala-Phe-Asn-PyrS2-2cbmf-BztA-Hse-NH2], for which the IC50 is more than 20000 nM in test [1] and 212 nM in test [2].
